Reference: patent US9433663B2, “Mobilization of hematopoietic stem cells” (Children's Hospital Medical Center, priority 2008, dated 2016)

Tests used:
[1] = tested on: PAK1, WASP, WAVE, ROCK; assay: Example 7 phosphorylation of downstream effectors by western blot; type: cell-based, murine LDBM and human HCB cells; details: HCB and LDBM cells
Method: To exclude the inhibitory effect of CASIN on other Rac isoforms, Rho GTPases, and Ras, broader effector pull-down experiments are performed on these possible candidates with gradient doses of CASIN in LDBM and HCB cells as previously described. In addition, CASIN has been indicated as a noncovalent and reversible inhibitor in Xenopus egg extract. To confirm it, reversibility is monitored in this set of effector pull-down experiments. Four treatment groups are divided for both LDBM and HCB cells: (1) Serum starvation 20 h; (2) Serum starvation 20 h+growth factors stimulation; (3) Serum starvation 20 h+CASIN treatment (doses: 1, 2.5, 5, and 10 μM) 3 h+growth factor stimulation; (4) Serum starvation 20 h+CASIN treatment (doses: 1, 2.5, 5, and 10 μM) 3 h+wash the cells, and culture for another 3 h for recovery+growth factors stimulation. […] Bound proteins are analyzed by immunoblotting with respective antibodies (BD Biosciences). Furthermore, changes of downstream targets of Cdc42, Rac, and Rho under the four treatment groups are assessed. Phosphorylation status of PAK1, WASP (effectors of Cdc42), WAVE (effector of Rac), and ROCK (effector of Rho) are monitored by western blots using respective antibodies.

[2] = tested on: leukemia initiating cells (LICs); type: in vivo
Description: Like normal HSCs, their malignant counterpart, leukemia initiating cells (LICs) reside in their BM niches that provide the structural and physiological conditions supporting their survival and growth. LICs are resistant to traditional chemotherapy by interacting with their BM microenvironment, which are the culprits of leukemia relapses after a period of remission induced by chemotherapy. Detachment of LICs from their niche by CASIN would be a valuable supplementary therapy to the traditional cancer therapies (e.g., chemotherapies). First of all, in vitro effects of CASIN were examined in adhesion, migration, and F-actin polymerization of LICs, each of which is independently important for the retention of LICs in BM niches. Retroviral transduction of an MLL-AF9 fusion cDNA together with N-Ras oncogene into normal human CD34^+cord blood cells led to the establishment of cultures of N-Ras-MA93 cells that can initiate acute myeloid leukemia in NOG mice. […] To address it, a human AML model was set up by transplanting N-RasMA93 cells into NOG mice intravenously.
C57BL/6, NOD/SCID, NOD/SCID-SGM3 and NOD/SCIDγC−/− (NOG) were in house bred in the animal barrier facility of Cincinnati Children's Hospital Medical Center (CCHMC) and used at the age of 6-8 weeks old. Cultured N-RasMA93 cells were injected into NOD/SCIDγC−/− mice by tail vein. […]

[3] = tested on: LT-HSC; assay: serial transplantation of CASIN-mobilized PB into NOD/SCID mice; type: in vivo
Method: Whether CASIN administration can induce mobilization of HSC/Ps to peripheral blood of C57Bl/6 mice, mimicking the phenotype observed in Cdc42 conditional knockout mice, was evaluated. First of all, mobilization of hematopoietic progenitor cells was examined by CFU-C assays functionally (FIG. 3a). […] Secondarily, to further explore the ability of CASIN to mobilize LT-HSC which is crucial for long-term repopulation of the mobilized cells, serial transplantations were carried out, where 20 million PB from CASIN-mobilized C57Bl/6 mice was transplanted into primary recipient of NOD/SCID mice, and subsequent secondary and tertiary transplants were finished as well using prior BMs (FIG. 3c). Donor chimerisms were assessed by using H2K^b congenic marker which is positive for donors of C57Bl/6 strain and negative for recipients of NOD/SCID strain. […] Therefore, the studies show CASIN can efficiently mobilize colony-forming hematopoietic progenitors and LT-HSCs with self-renewal and multi-lineage differentiation capacity. Thirdly, to further investigate the potential of CASIN to vacate the BM niche after mobilization, six-color staining of the BM cells was performed from C57Bl/6 mice with or without CASIN treatment followed by FACS analysis. […] Therefore, a transient decrease in BM and a concomitant increase in peripheral organs of HSCs would be beneficial to facilitating the subsequent HSC transplantation.
To functionally define the LT-HSC, serial transplantations of mobilized PB from C57Bl/6 mice into sublethally irradiated NOD/SCID mice were carried out. Briefly, 2×10^7 PB cells were harvested 40 hrs after CASIN mobilization, and subsequently transplanted to a sublethally irradiated primary recipient. Chimerisms of donor-derived cells in the BM and PB were monitored over time by FACS analysis of the congenic marker H2K^b. Subsequent secondary and tertiary transplantations were performed using prior BM cells, and monitored by FACS analysis as well.

[4] = tested on: HSCs (IL7Ra^−Lin^−Sca-1^+c-Kit^+) in the BM; assay: six-color FACS of BM HSPC compartments after treatment; type: in vivo; details: after CASIN injection, C57Bl/6 mice
Method: Whether CASIN administration can induce mobilization of HSC/Ps to peripheral blood of C57Bl/6 mice, mimicking the phenotype observed in Cdc42 conditional knockout mice, was evaluated. First of all, mobilization of hematopoietic progenitor cells was examined by CFU-C assays functionally (FIG. 3a). […] Secondarily, to further explore the ability of CASIN to mobilize LT-HSC which is crucial for long-term repopulation of the mobilized cells, serial transplantations were carried out, where 20 million PB from CASIN-mobilized C57Bl/6 mice was transplanted into primary recipient of NOD/SCID mice, and subsequent secondary and tertiary transplants were finished as well using prior BMs (FIG. 3c). Donor chimerisms were assessed by using H2K^b congenic marker which is positive for donors of C57Bl/6 strain and negative for recipients of NOD/SCID strain. […] Therefore, the studies show CASIN can efficiently mobilize colony-forming hematopoietic progenitors and LT-HSCs with self-renewal and multi-lineage differentiation capacity. […]
To immunophenotypically profile the multi-compartments of HSPCs in BM, FACS analysis of six-color staining was carried out as previously. […] The sub-compartments of HSC, LT-HSC, ST-HSC, and CLP were quantified accordingly.

`OCCNC1CCCc2c1[nH]c1ccc(-c3ccccc3)cc21` (centres unmarked) [CASIN] was tested. Which “phosphorylation of PAK1 and WASP” value [1] did it give?
The value was “inhibit”.

What about the “phosphorylation of WAVE and ROCK” value [1] of the same molecule?
Its value is “without affecting”.

And the “apoptosis or cell death of leukemia cells in vivo” value ([2]; in vivo)?
Its value is “did not elicit significant apoptosis or cell death”.

And the “mobilization of LICs to the peripheral blood” value ([2]; intravenous, by 20 min post injection)?
Its value is “efficiently mobilized the LICs to the peripheral blood transiently”.

And the “PB reconstitution of donor-derived cells in the primary recipient” value ([3]; 1-3 mo post transplantation of PB from CASIN-mobilized mice)?
Its value is “reconstituted considerable percentages of total PB”.

What about the “multi-lineage differentiation of engrafted donor cells” value ([3]; BM and PB of the primary recipients) of the same molecule?
The value was “had undergone multi-lineage differentiations”.

What about the “engraftment of donor-derived cells in BM” value ([3]; primary through tertiary transplantation) of the same molecule?
The value was “engraftment of donor-derived cells was detected”.

What about the “number of genotypic HSCs (IL7Ra^−Lin^−Sca-1^+c-Kit^+) in the BM” value [4] of the same molecule?
The value was “decreased significantly”.
